Target: T1, TRAP1 enzyme (Homo sapiens, UniProt Q12931)
T1 sequence (Q12931 60-704): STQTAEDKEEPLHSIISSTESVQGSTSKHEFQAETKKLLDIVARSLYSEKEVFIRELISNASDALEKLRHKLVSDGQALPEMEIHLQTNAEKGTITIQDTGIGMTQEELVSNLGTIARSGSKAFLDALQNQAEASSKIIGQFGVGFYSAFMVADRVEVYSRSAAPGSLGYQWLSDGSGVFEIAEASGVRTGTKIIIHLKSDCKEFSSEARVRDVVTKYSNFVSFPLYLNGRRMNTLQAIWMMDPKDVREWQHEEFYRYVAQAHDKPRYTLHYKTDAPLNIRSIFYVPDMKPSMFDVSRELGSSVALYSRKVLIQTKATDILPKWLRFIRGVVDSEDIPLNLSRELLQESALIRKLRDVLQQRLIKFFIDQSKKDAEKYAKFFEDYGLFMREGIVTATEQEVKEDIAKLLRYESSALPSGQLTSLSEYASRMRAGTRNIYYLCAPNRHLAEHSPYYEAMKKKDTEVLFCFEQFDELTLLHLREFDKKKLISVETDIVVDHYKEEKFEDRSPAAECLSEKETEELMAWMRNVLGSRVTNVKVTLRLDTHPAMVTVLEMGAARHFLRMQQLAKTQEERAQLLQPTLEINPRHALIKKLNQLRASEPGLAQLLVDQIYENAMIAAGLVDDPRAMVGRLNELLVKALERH
Test: ADP Glo assay (ATPase activity of TRAP1)
Assay type: biochemical
Conditions: for EC50: 150 nM Trap1, 20 µM ATP, concentration for half maximal activation, read-out: ADP GLO DRC: GeoMean EC50; for Emax: maximal percent activation, read-out: ADP GLO DRC: Mean Emax
Experimental: Potency of test compounds to modulate the ATPase activity of TRAP1 enzyme was evaluated using ADP Glo assay. The assay is based on quantification of the ADP generated from ATP in the ATPase reaction. The assay is performed in two steps; first, after the ATPase reaction, an equal volume of ADP-Glo™ Reagent is added to terminate the ATPase reaction and deplete the remaining ATP. Second, the Kinase Detection Reagent is added to simultaneously convert ADP to ATP and allow the newly synthesized ATP to be measured using a luciferase/luciferin reaction.
All the assays were carried out in a 384-well Proxiplate. The buffer used was 25 mM Pipes pH-7.5, 40 mM KCl, 0.05 mM MgCl2, 0.025 % BSA, 0.316 mM EGTA, 0.003% Empigen, 0.01% Igepal. 150 nM Trap1 enzyme was incubated with various concentrations of the test compound (0.79 µM - 100 µM) at 37° C. for 30 mins (except in blank wells). 20 µM ATP was added to each well to start the reaction. The plate was spun for 1 min at 1200 rpm and then incubated at 37° C. for 60 mins. 5 µl of ADP Glo reagent was added to all the wells and spun the plate for 1 min at 1200 rpm and kept it on a shaker at ambient temperature for 60 mins. 10 µl of kinase detection mix was added to all the wells and the plate was read for Luminescence at 495 nm. The amount of ADP released was estimated from ATP/ADP standard curve generated at the same experimental conditions. Emax (Maximal percent activation) and EC50 (concentration for half maximal activation ) were estimated by fitting the dose response data to a sigmoidal curve fitting equation using Graphpad Prism software V. 8.

SMILES | EC50 [µM] | Emax [%]
O=C(Nc1ccc2c(c1)S(=O)(=O)N(c1ccc(C(F)(F)F)cc1)CCO2)c1cccc(CO)n1 [Compound 2291] | < 20 | 150 to 200
Cn1ccc(C(=O)Nc2ccc3c(c2)S(=O)(=O)N(c2ccc(C(F)(F)F)cc2)CCO3)n1 [Compound 2294] | < 20 | 150 to 200
O=C(Nc1ccc2c(c1)S(=O)(=O)N(c1ccc(C(F)(F)F)cc1)CCO2)c1ccc(CO)cn1 [Compound 2296] | < 20 | 150 to 200
O=C(Nc1ccc2c(c1)S(=O)(=O)N(c1ccc(C(F)(F)F)cc1)CCO2)c1csc(CO)n1 [Compound 2305] | 20 to 30 | 129 to 149
Cc1cnn(C)c1C(=O)Nc1ccc2c(c1)S(=O)(=O)N(c1ccc(C(F)(F)F)cc1)CCO2 [Compound 2317] | < 20 | 129 to 149
COc1ccncc1C(=O)Nc1ccc2c(c1)S(=O)(=O)N(c1ccc(C(F)(F)F)cc1)CCO2 [Compound 2323] | 20 to 30 | 150 to 200
O=C(Nc1ccc2c(c1)S(=O)(=O)N(c1ccc(C(F)(F)F)cc1)CCO2)c1cnc[nH]c1=O [Compound 2334] | < 20 | 150 to 200
Cc1ncnc(C)c1C(=O)Nc1ccc2c(c1)S(=O)(=O)N(c1ccc(C(F)(F)F)cc1)CCO2 [Compound 2337] | 30 to 100 | 150 to 200
Cc1cc(C(=O)Nc2ccc3c(c2)S(=O)(=O)N(c2ccc(C(F)(F)F)cc2)CCO3)n(C)n1 [Compound 2339] | < 20 | 129 to 149
Cc1ncn(C)c1C(=O)Nc1ccc2c(c1)S(=O)(=O)N(c1ccc(C(F)(F)F)cc1)CCO2 [Compound 2343] | 30 to 100 | 150 to 200
CCc1ncccc1C(=O)Nc1ccc2c(c1)S(=O)(=O)N(c1ccc(C(F)(F)F)cc1)CCO2 [Compound 2344] | < 20 | 150 to 200
Cn1c(C(=O)Nc2ccc3c(c2)S(=O)(=O)N(c2ccc(C(F)(F)F)cc2)CCO3)cnc1O [Compound 2351] | 30 to 100 | > 200
Cc1ocnc1C(=O)Nc1ccc2c(c1)S(=O)(=O)N(c1ccc(F)cc1)CCO2 [Compound 2375, N-(2-(4-fluorophenyl)-1,1-dioxido-3,4-dihydro-2H-benzo[b][1,4,5]oxathiazepin-8-yl)-5-methyloxazole-4-carboxamide] | 30 to 100 | 150 to 200
Cc1ncoc1C(=O)Nc1ccc2c(c1)S(=O)(=O)N(c1ccc(C(F)(F)F)nc1)CCO2 [Compound 2388] | 30 to 100 | 150 to 200
CN1CCCCC1C(=O)Nc1ccc2c(c1)S(=O)(=O)N(c1ccc(C(F)(F)F)cc1)CCO2 (stereo not drawn) [Compound 2402] | 30 to 100 | 150 to 200
O=C(Nc1ccc2c(c1)S(=O)(=O)N(c1ccc(C(F)(F)F)cc1)CCO2)c1cnc(-c2ccccc2)[nH]1 [Compound 2423] | < 20 | 129 to 149
O=C(Nc1ccc2c(c1)S(=O)(=O)N(c1ccc(C(F)(F)F)cc1)CCO2)c1csc2c1CNCC2 [Compound 2433] | 30 to 100 | > 200
CC(C)n1cncc1C(=O)Nc1ccc2c(c1)S(=O)(=O)N(c1ccc(C(F)(F)F)cc1)CCO2 [Compound 2439] | 20 to 30 | 150 to 200
Cc1ocnc1C(=O)N(C)c1ccc2c(c1)S(=O)(=O)N(c1ccc(C(F)(F)F)cc1)CCO2 [Compound 2449] | 30 to 100 | 150 to 200
Cn1cc(C(=O)Nc2ccc3c(c2)S(=O)(=O)N(c2ccc(C(F)(F)F)cc2)CCO3)c2cccnc21 [Compound 2451] | < 20 | 129 to 149
Cc1ncoc1C(=O)Nc1ccc2c(c1)S(=O)(=O)N(c1ccc(C(F)(F)F)cc1)CCC2 [Compound 2458] | < 20 | 129 to 149
Cn1cccc(C(=O)Nc2cnc3c(c2)S(=O)(=O)N(c2ccc(C(F)(F)F)cc2)CCO3)c1=O [Compound 2462] | 20 to 30 | 150 to 200
CN1CCc2scc(C(=O)Nc3ccc4c(c3)S(=O)(=O)N(c3ccc(C(F)(F)F)cc3)CCO4)c2C1 [Compound 2472] | 30 to 100 | 150 to 200
O=C(Nc1ccc2c(c1)S(=O)(=O)N(c1ccc(C(F)(F)F)cc1)CCO2)c1cc(=O)cc[nH]1 [Compound 2473] | 30 to 100 | > 200
O=C(Nc1ccc2c(c1)S(=O)(=O)N(c1ccc(C(F)(F)F)cc1)CCO2)c1ncoc1C(F)(F)F [Compound 2494] | 30 to 100 | 129 to 149
Cc1cc(C(=O)Nc2cnc3c(c2)S(=O)(=O)N(c2ccc(C(F)(F)F)cc2)CCO3)n(C)n1 [Compound 2495] | 20 to 30 | > 200
O=C(Nc1ccc2c(c1)S(=O)(=O)N(c1ccc(C(F)(F)F)cc1)CCO2)c1cncn1CCO [Compound 2514] | 20 to 30 | 129 to 149
Cc1cc(C(=O)Nc2cnc3c(c2)S(=O)(=O)N(c2ccc(C(F)(F)F)cc2)CCO3)cc(C)n1 [Compound 2515] | 20 to 30 | > 200

The remaining lines, values ahead:

EC50 [µM] | Emax [%] | SMILES
30 to 100 | > 200 | Cc1c(C(=O)Nc2ccc3c(c2)S(=O)(=O)N(c2ccc(C(F)(F)F)cc2)CCO3)cnn1C [Compound 2295]
30 to 100 | > 200 | O=C(Nc1ccc2c(c1)S(=O)(=O)N(c1ccc(C(F)(F)F)cc1)CCO2)c1ccc(O)nc1 [Compound 2299]
30 to 100 | 150 to 200 | Cc1oncc1C(=O)Nc1ccc2c(c1)S(=O)(=O)N(c1ccc(C(F)(F)F)cc1)CCO2 [Compound 2345]
< 20 | > 200 | Cc1ncc(C(=O)Nc2ccc3c(c2)S(=O)(=O)N(c2ccc(C(F)(F)F)cc2)CCO3)n1C [Compound 2355]
30 to 100 | 150 to 200 | Cc1ccc(N2CCOc3ccc(NC(=O)c4ncoc4C)cc3S2(=O)=O)cc1 [Compound 2362]
30 to 100 | 150 to 200 | Cc1ocnc1C(=O)Nc1ccc2c(c1)S(=O)(=O)N(c1ccc(C#N)cc1)CCO2 [Compound 2377, N-(2-(4-cyanophenyl)-1,1-dioxido-3,4-dihydro-2H-benzo[b][1,4,5]oxathiazepin-8-yl)-5-methyloxazole-4-carboxamide]
< 20 | 129 to 149 | COc1cc(N2CCOc3ccc(NC(=O)c4ncoc4C)cc3S2(=O)=O)ccc1C(F)(F)F [Compound 2398]
30 to 100 | 150 to 200 | O=C(Nc1ccc2c(c1)S(=O)(=O)N(c1ccc(C(F)(F)F)cc1)CCO2)C1CCCN1 (stereo not drawn) [Compound 2410]
30 to 100 | 150 to 200 | CN1CCCC1C(=O)Nc1ccc2c(c1)S(=O)(=O)N(c1ccc(C(F)(F)F)cc1)CCO2 (stereo not drawn) [Compound 2417]
30 to 100 | 150 to 200 | Cc1ncoc1C(=O)Nc1ccc2c(c1)S(=O)(=O)N(c1ccc(C(F)F)cc1)CCO2 [Compound 2443]
30 to 100 | 129 to 149 | O=C(Nc1ccc2c(c1)S(=O)(=O)N(c1ccc(C(F)(F)F)cc1)CCO2)c1csc(-c2ccccc2)n1 [Compound 2503]
30 to 100 | 150 to 200 | Cc1cc(C(=O)Nc2ccc3c(c2)S(=O)(=O)N(c2ccc(C(F)(F)F)cc2)CCO3)cc(C)n1 [Compound 2510]
30 to 100 | > 200 | NCc1cccc(C(=O)Nc2ccc3c(c2)S(=O)(=O)N(c2ccc(C(F)(F)F)cc2)CCO3)n1 [Compound 2513]
30 to 100 | > 200 | Cn1ccc(=O)cc1C(=O)Nc1ccc2c(c1)S(=O)(=O)N(c1ccc(C(F)(F)F)cc1)CCO2 [Compound 2516]

— US20230218632A1, “CYCLIC SULFONAMIDE DERIVATIVES AS TRAP1 MODULATORS AND USES THEREOF” (Amathus Therapeutics, Inc., priority 2020, published 2023)
